These results are taken from ChEMBL document CHEMBL1130485, “Novel low molecular renin inhibitors which show good oral blood pressure lowering effects in marmosets” (Bioorg Med Chem Lett, 1997).

Molecules are shown by their SMILES.

Assay [1] in a line: In vivo blood pressure lowering effects in salt depleted conscious marmosets was determined when a dose of 10mg/Kg, po. at 1 hr. The class given is functional, Callitrichinae.
The target of another assay is T1, Renin (Homo sapiens, UniProt P00797).
T1 sequence (P00797 whole entry): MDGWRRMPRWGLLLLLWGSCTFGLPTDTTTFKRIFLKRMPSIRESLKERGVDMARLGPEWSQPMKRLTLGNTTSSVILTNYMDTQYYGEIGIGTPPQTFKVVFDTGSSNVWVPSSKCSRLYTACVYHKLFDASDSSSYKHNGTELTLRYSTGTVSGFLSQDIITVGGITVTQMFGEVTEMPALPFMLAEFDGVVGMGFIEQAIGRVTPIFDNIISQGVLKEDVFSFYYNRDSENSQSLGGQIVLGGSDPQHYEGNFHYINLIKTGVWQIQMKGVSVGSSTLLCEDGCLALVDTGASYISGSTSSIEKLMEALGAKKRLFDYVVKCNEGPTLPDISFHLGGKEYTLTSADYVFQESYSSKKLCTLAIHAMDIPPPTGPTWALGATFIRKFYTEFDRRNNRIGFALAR
The assay can be described thus: In vitro renin inhibitory effect was evaluated for plasma renin activity (PRA) of human plasma, Expressed as IC50. It counts as cell-free.

The nature of assay [2]: In vivo blood pressure lowering effects in salt depleted conscious marmosets was determined when a dose of 10mg/Kg, po. at 3h. It counts as functional, Callitrichinae.
A short description of assay [3]: In vivo blood pressure lowering effects in salt depleted conscious marmosets was determined when a dose of 10mg/Kg, po. at 0.5 hr. It counts as functional, Callitrichinae.
The target in assay [4] is T2, Angiotensin-converting enzyme (Homo sapiens, UniProt P12821). The assay can be described thus: Percent Inhibitory activity against angiotensin-converting enzyme (ACE) human at the concentration of 100000 nM.
T2 sequence (P12821 whole entry): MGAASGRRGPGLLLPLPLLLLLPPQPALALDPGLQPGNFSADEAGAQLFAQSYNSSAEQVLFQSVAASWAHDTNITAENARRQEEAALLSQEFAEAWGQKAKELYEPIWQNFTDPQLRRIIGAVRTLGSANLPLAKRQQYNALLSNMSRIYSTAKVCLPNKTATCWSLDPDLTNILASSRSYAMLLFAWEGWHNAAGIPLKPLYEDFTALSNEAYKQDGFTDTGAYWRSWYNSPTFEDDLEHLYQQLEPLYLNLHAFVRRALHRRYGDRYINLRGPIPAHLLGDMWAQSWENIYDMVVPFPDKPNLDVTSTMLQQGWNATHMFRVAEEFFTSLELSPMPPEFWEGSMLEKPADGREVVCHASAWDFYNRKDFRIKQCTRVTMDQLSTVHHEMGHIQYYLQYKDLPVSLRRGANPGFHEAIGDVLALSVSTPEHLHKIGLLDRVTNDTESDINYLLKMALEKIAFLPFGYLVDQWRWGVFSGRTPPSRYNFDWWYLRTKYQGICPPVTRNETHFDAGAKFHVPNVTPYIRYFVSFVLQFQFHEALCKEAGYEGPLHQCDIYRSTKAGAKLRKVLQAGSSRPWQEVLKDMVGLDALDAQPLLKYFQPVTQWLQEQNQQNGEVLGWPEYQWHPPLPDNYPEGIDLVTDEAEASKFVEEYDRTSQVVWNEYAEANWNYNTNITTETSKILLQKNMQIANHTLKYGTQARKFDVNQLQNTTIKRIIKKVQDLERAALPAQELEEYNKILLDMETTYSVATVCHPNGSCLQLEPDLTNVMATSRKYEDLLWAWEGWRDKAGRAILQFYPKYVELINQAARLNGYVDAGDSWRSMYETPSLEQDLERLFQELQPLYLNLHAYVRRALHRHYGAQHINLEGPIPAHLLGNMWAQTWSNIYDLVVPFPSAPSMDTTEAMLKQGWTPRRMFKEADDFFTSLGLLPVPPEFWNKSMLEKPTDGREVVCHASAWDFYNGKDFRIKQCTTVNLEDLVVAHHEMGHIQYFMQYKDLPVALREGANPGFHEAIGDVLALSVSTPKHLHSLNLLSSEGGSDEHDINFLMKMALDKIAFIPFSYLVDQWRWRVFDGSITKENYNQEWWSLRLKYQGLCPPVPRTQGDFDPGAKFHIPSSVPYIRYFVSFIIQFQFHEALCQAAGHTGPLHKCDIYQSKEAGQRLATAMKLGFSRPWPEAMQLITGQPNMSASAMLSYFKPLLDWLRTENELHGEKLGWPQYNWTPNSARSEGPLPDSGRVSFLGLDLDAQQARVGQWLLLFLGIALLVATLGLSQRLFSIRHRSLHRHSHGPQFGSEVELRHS
The target of assay [5] is T3, Renin (Rattus norvegicus) (UniProt P08424).
T3 sequence (whole entry): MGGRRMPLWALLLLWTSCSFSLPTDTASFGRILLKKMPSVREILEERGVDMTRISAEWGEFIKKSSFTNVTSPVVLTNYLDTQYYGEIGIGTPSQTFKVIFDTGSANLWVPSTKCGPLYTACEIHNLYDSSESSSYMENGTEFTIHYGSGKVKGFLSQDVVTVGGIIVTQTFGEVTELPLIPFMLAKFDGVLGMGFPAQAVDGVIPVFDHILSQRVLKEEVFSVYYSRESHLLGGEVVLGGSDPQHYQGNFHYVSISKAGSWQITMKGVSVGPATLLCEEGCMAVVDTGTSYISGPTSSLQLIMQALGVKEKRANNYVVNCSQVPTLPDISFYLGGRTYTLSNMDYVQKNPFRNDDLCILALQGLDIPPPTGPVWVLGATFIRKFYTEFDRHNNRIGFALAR
The assay can be described thus: In vitro percent Inhibitory activity against rat plasma renin at the concentration of 100000 nM. It counts as cell-free.

The target of the next assay is Pepsin A (Sus scrofa) (UniProt P00791). The assay can be described thus: Percent Inhibitory activity against pepsin at the concentration of 100000 nM.
Sequence of Pepsin A (Sus scrofa) (P00791 60-385 limits assumed): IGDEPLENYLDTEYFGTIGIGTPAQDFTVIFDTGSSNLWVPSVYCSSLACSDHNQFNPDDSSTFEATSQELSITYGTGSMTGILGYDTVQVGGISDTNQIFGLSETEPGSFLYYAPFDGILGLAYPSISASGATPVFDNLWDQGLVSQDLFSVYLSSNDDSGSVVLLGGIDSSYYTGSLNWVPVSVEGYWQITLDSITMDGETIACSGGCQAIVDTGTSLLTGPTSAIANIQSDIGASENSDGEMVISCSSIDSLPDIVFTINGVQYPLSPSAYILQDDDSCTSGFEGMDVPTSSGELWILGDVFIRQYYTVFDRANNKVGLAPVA
In assay [6] the target is T2, Angiotensin-converting enzyme. The assay can be described thus: Inhibitory activity against ACE human, expressed as IC50.
In a further assay the target is Pepsin A (Sus scrofa, UniProt P00791). The assay can be described thus: In vitro inhibitory effect was evaluated against pepsin, Expressed as IC50.
Sequence of Pepsin A (P00791 whole entry): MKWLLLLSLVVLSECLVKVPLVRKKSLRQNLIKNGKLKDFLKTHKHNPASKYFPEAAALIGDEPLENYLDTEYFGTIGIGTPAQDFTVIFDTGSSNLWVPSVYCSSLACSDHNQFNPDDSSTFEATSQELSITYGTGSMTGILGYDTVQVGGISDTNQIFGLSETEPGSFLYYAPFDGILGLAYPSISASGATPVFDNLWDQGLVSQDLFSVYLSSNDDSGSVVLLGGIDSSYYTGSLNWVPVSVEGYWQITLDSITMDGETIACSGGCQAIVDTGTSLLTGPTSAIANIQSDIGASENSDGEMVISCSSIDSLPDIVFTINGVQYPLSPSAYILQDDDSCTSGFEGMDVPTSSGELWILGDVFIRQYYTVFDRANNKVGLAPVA
The next assay concerns the target T4, Cathepsin D (Bos taurus, UniProt P80209).
T4 sequence (P80209 whole entry): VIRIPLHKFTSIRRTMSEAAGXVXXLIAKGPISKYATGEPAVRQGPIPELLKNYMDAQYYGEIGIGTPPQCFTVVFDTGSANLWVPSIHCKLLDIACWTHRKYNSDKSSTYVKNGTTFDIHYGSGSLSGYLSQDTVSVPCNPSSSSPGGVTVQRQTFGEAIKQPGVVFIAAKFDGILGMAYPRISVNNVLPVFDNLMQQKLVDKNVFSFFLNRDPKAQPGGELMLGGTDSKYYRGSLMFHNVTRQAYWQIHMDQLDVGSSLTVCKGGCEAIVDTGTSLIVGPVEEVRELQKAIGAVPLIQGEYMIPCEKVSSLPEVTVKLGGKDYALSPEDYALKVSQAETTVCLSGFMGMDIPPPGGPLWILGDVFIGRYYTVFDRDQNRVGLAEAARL
Briefly: Inhibitory activity against cathepsin D (bovine), expressed as IC50.

Consider `CC(C)[C@@H](O)C[C@H](O)[C@H](CC1CCCCC1)NC(=O)[C@H](Cc1c[nH]cn1)NC(=O)c1nc2ccccc2[nH]1`, for which the “Delta SBP” value in [1] is -13 mmHg; in assay [2], -7 mmHg; in [3] it was -9 mmHg. Inhibition at Renin was half-maximal at 0.013 µM (IC50).

For the molecule `CC(C)[C@@H](O)C[C@H](O)[C@H](CC1CCCCC1)NC(=O)[C@H](Cc1c[nH]cn1)NC(=O)c1cc2ccccc2cn1`, half-maximal inhibition on Renin (IC50) required 0.79 µM. That is a sub-micromolar value.

For the molecule `CC(C)[C@@H](O)C[C@H](O)[C@H](CC1CCCCC1)NC(=O)[C@H](Cc1c[nH]cn1)NC(=O)c1cc2ccccc2o1`, the midpoint of inhibition against Renin, the IC50, lay at 0.14 µM. This IC50 is about 5.6-fold lower than that of the molecule before.

On Renin, `CC(C)[C@@H](O)C[C@H](O)[C@H](CC1CCCCC1)NC(=O)[C@H](Cc1cnc[nH]1)NC(=O)c1cc2ccccc2s1` displayed an IC50 of 8.2 µM.

As to `CC(C)[C@@H](O)C[C@H](O)[C@H](CC1CCCCC1)NC(=O)[C@H](Cc1c[nH]cn1)NC(=O)c1cc2ccccc2[nH]1`, the “Delta SBP” value in assay [1] is listed as -15 mmHg; in [2], -13 mmHg; in [3], -12 mmHg. The inhibition was determined as 6% in [4], 41.1% in [5] and 5.6% against Pepsin A (Sus scrofa).

In the case of `CC(C)[C@@H](O)C[C@H](O)[C@H](CC1CCCCC1)NC(=O)[C@H](Cc1c[nH]cn1)NC(=O)c1cc2ccccc2c(O)n1`, the figures for the “Delta SBP” value in assay [1], in assay [2] and in assay [3] were 1 mmHg, 2 mmHg and -5 mmHg, respectively. This molecule also returned a concentration for half-maximal inhibition (IC50) against Renin of 0.048 µM.

In turn, `CC(C)[C@@H](O)C[C@H](O)[C@H](CC1CCCCC1)NC(=O)[C@H](Cc1cnc[nH]1)N(C)C(=O)[C@H](Cc1ccccc1)NC(=O)N1CCC(O)CC1` gave an IC50 against Renin of 0.00068 µM.

Turning to `CC(C)[C@@H](O)C[C@H](O)[C@H](CC1CCCCC1)NC(=O)[C@H](Cc1cnc[nH]1)NC(=O)C1Cc2ccccc2N1` (stereo in doubt; 4), on Renin, the IC50 was found to be 0.88 µM. Against the preceding molecule, the IC50 is about 1300-fold higher.

With `CC(C)[C@@H](O)C[C@H](O)[C@H](CC1CCCCC1)NC(=O)[C@H](Cc1cnc[nH]1)NC(=O)[C@@H]1Cc2ccccc2CN1`, inhibition on Renin was half-maximal at 0.42 µM (IC50).

Take `CC(C)[C@@H](O)C[C@H](O)[C@H](CC1CCCCC1)NC(=O)[C@H](Cc1c[nH]cn1)NC(=O)c1cc2cc(F)ccc2[nH]1`: the “Delta SBP” value in assay [1] was -21 mmHg; in assay [2], -12 mmHg; in assay [3] it was -18 mmHg. Besides, the half-maximal inhibitory concentration (IC50) against Renin is 0.046 µM.

At Renin, `CC(C)[C@@H](O)C[C@H](O)[C@H](CC1CCCCC1)NC(=O)[C@H](Cc1c[nH]cn1)NC(=O)c1cc2cc(Cl)ccc2[nH]1` returned an IC50 of 0.26 µM.

For `CC(C)[C@@H](O)C[C@H](O)[C@H](CC1CCCCC1)NC(=O)[C@H](Cc1cnc[nH]1)NC(=O)c1cc2cc(O)ccc2[nH]1`, the IC50 against Renin stood at 0.6 µM.

Turning to `CC(C)[C@@H](O)C[C@H](O)[C@H](CC1CCCCC1)NC(=O)[C@H](Cc1cnc[nH]1)NC(=O)c1cc2cccnc2[nH]1`, on Renin, inhibition was half-maximal at 0.8 µM (IC50). This IC50 and that of the molecule before are within 1.5-fold of each other.

The molecule `CC(C)[C@@H](O)C[C@H](O)[C@H](CC1CCCCC1)NC(=O)[C@H](Cc1c[nH]cn1)NC(=O)c1ccc[nH]1` showed an IC50 on Renin of 3 µM.

On to `CC(C)[C@@H](O)C[C@H](O)[C@H](CC1CCCCC1)NC(=O)[C@H](Cc1cnc[nH]1)NC(=O)c1cc2ccccc2[nH]1`, for which the 50% inhibitory concentration (IC50) (in assay [6]; on Pepsin A; against Cathepsin D) was above 100 µM in each case.

Consider `CC(=O)n1c(C(=O)N[C@@H](Cc2cnc[nH]2)C(=O)N[C@@H](CC2CCCCC2)[C@@H](O)C[C@H](O)C(C)C)cc2ccccc21`, for which, at Renin, it took 0.34 µM to reach half-maximal inhibition (IC50).

Turning to `CC(C)[C@@H](O)C[C@H](O)[C@H](CC1CCCCC1)NC(=O)[C@H](Cc1cnc[nH]1)NC(=O)C1Cc2ccccc2N1` (stereo in doubt), at Renin, half-maximal inhibition (IC50) required 4.4 µM.
